# From PMC6151508, “Development of Novel Nrf2/ARE Inducers Bearing Pyrazino[2,1-a]isoquinolin Scaffold with Potent In Vitro Efficacy and Enhanced Physicochemical Properties” (Molecules : A Journal of Synthetic Chemistry and Natural …, 2017)
# Assays:
# [1] = system: antioxidant response element (ARE); experiment: ARE luciferase reporter assay in HepG2-ARE-C8 cells; assay type: cell-based; conditions: HepG2-ARE-C8, 12 h of treatment, mean ± SD n = 3; for fold induction at 0.1 µM / fold induction at 1 µM / fold induction at 5 µM / fold induction at 10 µM / fold induction at 50 µM / fold induction at 100 µM: read-out: ARE Inductivity in Luciferase Reporter Assay (induction fold)
# Protocol: (§1) All the derivatives were evaluated for their ability to induce ARE in HepG2-ARE-C8 cell (HepG2 cells stably transfected with a luciferase reporter) by ARE luciferase reporter assay, and they were compared to the lead compound 2. At the same time, cytotoxicity studies were performed by the MTT assay against the HCT116 cells. The results of cytotoxic activity in vitro were expressed as the IC50 [18]. Because those compounds were designed for chemoprevention, they should not be cytotoxic.
# HepG2-ARE-C8 cells (4 × 10^4 cells/well) were incubated overnight in 96-well plates, and then treated with different concentrations of test compounds. tBHQ was used as a positive control, DMSO was used as a negative control, and the luciferase cell culture lysis reagent was used as a blank. The medium was removed after 12 h treatment. Then, the cells were harvested in the luciferase cell culture lysis reagent together with 100 μL of cold PBS. Then, centrifuging the solution and 20 μL of the supernatant was used for determining the luciferase activity. The luciferase activity was measured by a Luminoskan Ascent (Thermo Scientific, Waltham, MA, USA). The data were obtained in triplicate and expressed as fold induction over the control. Induction fold = (RLUtest − RLUblank)/(RLUDMSOcontrol − RLUblank). RLU = relative light unit l.
# [2] = Water solubility by pH-metric method (pSOL model 3); assay type: physicochemical; conditions: for solubility: water, pH 7.4, aqueous buffer, thermodynamic from solid
# Text: (§2) This is a new potentiometric acid−base titration method.
# [3] = pKa by potentiometric titration (Gemini Profiler, pION); assay type: physicochemical
# Text: (§3) Ketoprofen and propranolol were chosen as a control.
# as §2
# [4] = Parallel artificial membrane permeability assay (PAMPA by pION); conditions: pH 7.4
# Protocol: (§6) Then we evaluated the physicochemical properties of a selected series of our compounds. […] All of them were evaluated with pKa, partition coefficient (log D, pH 7.4), membrane permeability (Pe, pH 7.4) and water solubility. […] Permeability (Pe) was determined by a standard parallel artificial membrane permeability assay (PAMPA by pION).
# (§7) Permeability (Pe) was determined by a standard parallel artificial membrane permeability assay (PAMPA by pION).
# [5] = MTT cell viability (cytotoxicity) assay; assay type: cell-based; conditions: human, HCT116 cells
# Protocol: as §1
# Cell viabilities were determined by using 3-[4,5-dimethylthiazol-2-yl]-2,5-diphenyltetrazolium bromide (MTT) assay. MTT was dissolved in (phosphate buffered solution) PBS to a concentration of 5 mg/mL. HCT116 cells (8 × 10^3 cells/well) were plated in 96-well plates and incubated overnight. Different concentrations of test compounds were added to each cell for 24 h at 37 °C, and the 20 μL MTT solution was added and incubated for an additional 4 h. Then, 100 μL of DMSO was added to dissolve formazan precipitate after the solution was removed. The OD value was determined at 570 nm by Elx800 absorbance microplate reader (BioTek, Winooski, VT, USA). IC50 value (concentration at which cell survival equals 50% of control) = […].
# [6] = log D pH 7.4 by potentiometric titration (Gemini Profiler, pION); assay type: physicochemical
# Text: as §3, §2
# physchem = conditions: PAMPA, pH 7.4
# Protocol: as §6, §7
# [7] = system: antioxidant response element (ARE); parameters: method as in PMID 24053646; conditions: 10 μM, luciferase reporter assay; cited from earlier work
# HCT116 cells = system: HCT116 cells; parameters: method as in PMID 24053646; conditions: previously reported value; cited from earlier work
# Nrf2 [8] = system: Nrf2; parameters: method as in PMID 24053646; conditions: HCT116; cited from earlier work
# heme oxygenase-1 (HO-1) = system: heme oxygenase-1 (HO-1); parameters: method as in PMID 24053646; conditions: HCT116; cited from earlier work
# NQO1 [9] = system: NQO1; parameters: method as in PMID 24053646; conditions: HCT116; cited from earlier work
# colorectal adenomas = system: colorectal adenomas; parameters: method as in PMID 24053646; conditions: AOM-DSS mouse model; cited from earlier work
# NQO1 [10] = experiment: Western blot of NQO1 protein level in HCT116; assay type: cell-based, human; conditions: tBHQ at 100 μM
# Text: (§4) Compound 3g was selected to evaluate its capacity to activate the expression of Nrf2-regulated NQO1 by measuring the protein levels in HCT116 via Western Blot. […] Those data further confirmed that 3g bearing pyrido[1,2-a]pyrazin scaffold could elevate both Nrf2 and downstream proteins of Nrf2 at the cellular level.
# (§5) Anti-NQO1 (sc-271116), anti-Nrf2 (BS1258) and Anti-β-actin (AP0060) antibodies were purchased from Santa Cruz Biotechnology (Santa Cruz, CA, USA) and Bioworlde (Bioworlde, Visalia, CA, USA), respectively. The isolation of cell fractions and Western blotting were performed as detailed previously. Briefly, the extracts were separated by SDS-PAGE and then electrotransferred to PVDF membranes (Perkin Elmer, Northwalk, CT, USA). Membranes were blocked with 1% BSA for 1 h followed by incubation with a primary antibody at 4 °C overnight. Then they were washed and treated with a DyLight 800 labeled secondary antibody at 37 °C for 2 h. The membranes were screened through the odyssey infrared imaging System (LI-COR, Lincoln, NE, USA).
# Nrf2 [11] = experiment: Western blot of Nrf2 protein level in HCT116; assay type: cell-based, human; conditions: HCT116, 10 μM
# Text: as §4, §5
smiles,measurement,setting,value
"O=C(C=C1NCC2CCCCN2C1=O)c1cccc(F)c1 (stereo not shown) [Compound 3b, 3-(2-(3-fluorophenyl)-2-oxoethylidene)octahydro-4H-pyrido[1,2-a]pyrazin-4-one]",fold induction at 0.1 µM,[1],0.7 ± 0.35
same,fold induction at 1 µM,[1],5.98 ± 2.31
same,fold induction at 5 µM,[1],24.8 ± 2.67
same,ARE Inductivity in Luciferase Reporter Assay (induction fold),[1]; 10 μM,32.97 ± 3.68 fold
same,fold induction at 10 µM,[1]; 10 μM,33
same,fold induction at 50 µM,[1],40 ± 0.69
same,fold induction at 100 µM,[1]; 100 μM,4.41 ± 2.89
same,solubility,[2],290 µg/mL
same,pKa,[3],3.1
same,Papp,[4],54.5 ± 6 ×10⁻⁶ cm/s
same,IC50 at 24 h,[5],168 µM
same,melting point,,156 to 158 °C
same,logD,[6],1.23
CC(C)NCC(O)COc1cccc2ccccc12 (stereo not shown) [Propranolol],Papp,physchem,64.7 ± 8.58 ×10⁻⁶ cm/s
O=C(/C=C1\NCC2c3ccccc3CCN2C1=O)c1cccc(F)c1 (stereo not shown) [Compound 2],fold induction at 0.1 µM,[1],1.45 ± 0.39
same,fold induction at 1 µM,[1],6.2 ± 4.06
same,fold induction at 5 µM,[1],16.2 ± 0.3
same,ARE Inductivity in Luciferase Reporter Assay (induction fold),[1]; 10 μM,31.17 ± 4.14 fold
same,fold induction at 10 µM,[1]; 10 μM,31.2
same,fold induction at 50 µM,[1],7.51 ± 1.32
same,fold induction at 100 µM,[1]; 100 μM,12.2 ± 3.32
same,water solubility,[2]; pH 7.4,22 µg/mL
same,solubility,[2],22 µg/mL
same,pKa,[3],2.78
same,Papp,[4],11.7 ± 2.2 ×10⁻⁶ cm/s
same,induction of ARE (previously reported),[7],33.00 fold
same,IC50,HCT116 cells,> 100 µM
same,IC50 at 24 h,[5],165 µM
same,logD,[6],2.38
O=C(/C=C1\NCC2c3ccccc3CCN2C1=O)c1ccccc1 (stereo not shown) [Compound 1],nuclear translocation of Nrf2,Nrf2 [8],induce the nuclear translocation of Nrf2
same,expression of HO-1,heme oxygenase-1 (HO-1),induce
same,induction of ARE (previously reported),[7],26.87 fold
same,expression of NQO1,NQO1 [9],induce
same,development of colorectal adenomas,colorectal adenomas,significantly inhibit
"O=C(C=C1NCC2CCCCN2C1=O)c1ccco1 (stereo not shown) [Compound 3g, 3-(2-(furan-2-yl)-2-oxoethylidene)octahydro-4H-pyrido[1,2-a]pyrazin-4-one]",fold induction at 0.1 µM,[1],0.24 ± 0.15
same,fold induction at 1 µM,[1],1.5 ± 0.01
same,fold induction at 5 µM,[1],6.41 ± 3.14
same,ARE Inductivity in Luciferase Reporter Assay (induction fold),[1]; 10 μM,27.01 ± 2.46 fold
same,fold induction at 10 µM,[1]; 10 μM,27
same,fold induction at 50 µM,[1],41.6 ± 2.6
same,ARE Inductivity in Luciferase Reporter Assay (induction fold),[1]; 100 μM,79.74 ± 1.92 fold
same,fold induction at 100 µM,[1]; 100 μM,79.7
same,solubility,[2],3310 µg/mL
same,pKa,[3],2.08
same,Papp,[4],32.7 ± 1.92 ×10⁻⁶ cm/s
same,IC50 at 24 h,[5],> 300 µM
same,NQO1 protein level (Western blot),NQO1 [10],induced by 3g in a concentration-dependent manner
same,melting point,,152 to 154 °C
same,logD,[6],-0.34
same,Nrf2 protein level (Western blot),Nrf2 [11],elevated the protein level of Nrf2
"O=C(C=C1NCC2c3ccccc3CCN2C1=O)C1CCC1 (stereo not shown) [Compound 2c, 3-(2-cyclobutyl-2-oxoethylidene)-1,2,3,6,7,11b-hexahydro-4H-pyrazino[2,1-a]isoquinolin-4-one]",fold induction at 0.1 µM,[1],2.96 ± 0.48
same,fold induction at 1 µM,[1],3.04 ± 0.08
same,fold induction at 5 µM,[1],5.73 ± 1.44
same,fold induction at 10 µM,[1]; 10 μM,13.3 ± 0.44
same,fold induction at 50 µM,[1],28 ± 1.39
same,fold induction at 100 µM,[1]; 100 μM,29 ± 2.45
same,solubility,[2],170 µg/mL
same,pKa,[3],3.02
same,Papp,[4],44 ± 5.42 ×10⁻⁶ cm/s
same,IC50 at 24 h,[5],190 µM
same,melting point,,172 to 174 °C
same,logD,[6],1.22
"O=C(C=C1NCC2c3ccccc3CCN2C1=O)c1cccc(NC(=O)N2CCOCC2)c1 (stereo not shown) [Compound 1e, N-(3-(2-(4-oxo-1,6,7,11b-tetrahydro-2H-pyrazino[2,1-a]isoquinolin-3(4H)-ylidene)acetyl)phenyl)morpholine-4-carboxamide]",fold induction at 0.1 µM,[1],1.57 ± 0.05
same,fold induction at 1 µM,[1],1.97 ± 0.2
same,fold induction at 5 µM,[1],4.53 ± 0.28
same,fold induction at 10 µM,[1]; 10 μM,5.48 ± 0.13
same,fold induction at 50 µM,[1],7.8 ± 3.94
same,fold induction at 100 µM,[1]; 100 μM,35 ± 3.15
same,solubility,[2],46 µg/mL
same,pKa,[3],2.9
same,Papp,[4],53 ± 7.29 ×10⁻⁶ cm/s
same,IC50 at 24 h,[5],183 µM
same,melting point,,228 to 230 °C
same,logD,[6],0.61
"O=C(C=C1NCC2CCCCN2C1=O)c1cccc2ccccc12 (stereo not shown) [Compound 3j, 3-(2-(naphthalen-1-yl)-2-oxoethylidene)octahydro-4H-pyrido[1,2-a]pyrazin-4-one]",fold induction at 0.1 µM,[1],1.7 ± 0.19
same,fold induction at 1 µM,[1],2.34 ± 0.53
same,fold induction at 5 µM,[1],2.54 ± 0.99
same,fold induction at 10 µM,[1]; 10 μM,3.52 ± 0.57
same,fold induction at 50 µM,[1],3.85 ± 0.34
same,fold induction at 100 µM,[1]; 100 μM,1.96 ± 0.71
same,IC50 at 24 h,[5],264 µM
same,melting point,,151 to 153 °C
"O=C(C=C1NCC2CCCCN2C1=O)c1ccccc1 (stereo not shown) [Compound 3a, 3-(2-oxo-2-phenylethylidene)octahydro-4H-pyrido[1,2-a]pyrazin-4-one]",fold induction at 0.1 µM,[1],1.2 ± 0.49
same,fold induction at 1 µM,[1],4.09 ± 0.79
same,fold induction at 5 µM,[1],15.8 ± 2.08
same,fold induction at 10 µM,[1]; 10 μM,16.4 ± 0.55
same,fold induction at 50 µM,[1],29.9 ± 8.49
same,fold induction at 100 µM,[1]; 100 μM,40.6 ± 1.78
same,solubility,[2],530 µg/mL
same,pKa,[3],3.42
same,Papp,[4],66.4 ± 5.08 ×10⁻⁶ cm/s
same,IC50 at 24 h,[5],> 300 µM
same,melting point,,164 to 166 °C
same,logD,[6],0.98
"CC(=O)Nc1cccc(C(=O)C=C2NCC3c4ccccc4CCN3C2=O)c1 (stereo not shown) [Compound 1c, N-(3-(2-(4-oxo-1,6,7,11b-tetrahydro-2H-pyrazino[2,1-a]isoquinolin-3(4H)-ylidene)acetyl)phenyl)acetamide]",fold induction at 0.1 µM,[1],0.8 ± 0.19
same,fold induction at 1 µM,[1],0.78 ± 0.36
same,fold induction at 5 µM,[1],2.3 ± 0.39
same,fold induction at 10 µM,[1]; 10 μM,3.05 ± 0.53
same,fold induction at 50 µM,[1],3.09 ± 0.09
same,fold induction at 100 µM,[1]; 100 μM,3.41 ± 0.65
same,IC50 at 24 h,[5],> 300 µM
same,melting point,,247 to 249 °C
"O=C(C=C1NCC2c3ccccc3CCN2C1=O)c1ccc(N2CCOCC2)cc1 (stereo not shown) [Compound 2i, 3-(2-(4-morpholinophenyl)-2-oxoethylidene)-1,2,3,6,7,11b-hexahydro-4H-pyrazino[2,1-a]isoquinolin-4-one]",fold induction at 0.1 µM,[1],1.71 ± 0.71
same,fold induction at 1 µM,[1],1.88 ± 1.36
same,fold induction at 5 µM,[1],1.37 ± 0.19
same,fold induction at 10 µM,[1]; 10 μM,1.66 ± 0.53
same,fold induction at 50 µM,[1],1.16 ± 0.63
same,fold induction at 100 µM,[1]; 100 μM,1.42 ± 0.31
same,IC50 at 24 h,[5],237 µM
same,melting point,,235 to 237 °C
"CC(C)(C)c1cc(O)ccc1O [tBHQ, tert-butylhydroquinone, reference compound]",fold induction at 0.1 µM,[1],1 ± 0.01
same,fold induction at 1 µM,[1],1.8 ± 0.66
same,fold induction at 5 µM,[1],1.67 ± 0.56
same,fold induction at 10 µM,[1]; 10 μM,1.98 ± 0.29
same,fold induction at 50 µM,[1],4.45 ± 1.15
same,ARE Inductivity in Luciferase Reporter Assay (induction fold),[1]; 100 μM,10.79 ± 3.13 fold
same,fold induction at 100 µM,[1]; 100 μM,10.8
same,NQO1 protein level (Western blot),NQO1 [10],induced expression of NQO1
